Test results taken from patent US20260317319A1, “NOVEL ERGOLINES AND METHODS OF TREATING MOOD DISORDERS” (Gilgamesh Pharma Inc., priority 2023, published 2026).
Read-outs that look alike come from different tables or passages of the source.

Experiments:
[1] = target: T1, 5-HT2B receptor (Homo sapiens, UniProt P41595); test: cell-based; assay type: cell-based; conditions: for Emax: HEK293, agonist, HEK293, max dose, read-out: 5-HT2B % Act @ Max Dose; for Emax / EC50: Ca2+ flux; for EC50: agonist, HEK293
T1 construct: expressed in transfected cells; host or cells: HEK293, stably transfected
Procedure, shortened: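 FLIPR Tetra fluorescence read-out of calcium flux after compound addition. Receptor-expressing stable lines were used (HEK293 for 2A/2B; CHO with Gα15 for 1A), dye-loaded with Fluo-4 Direct and 2.5 mM final probenecid, 50 min at 37 °C.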

[2] = target: T2, 5-HT2C receptor (Homo sapiens, UniProt P28335); test: cell-based; conditions: read-out: 5-HT2C % Act @ Max Dose
T2 sequence (P28335 33-458): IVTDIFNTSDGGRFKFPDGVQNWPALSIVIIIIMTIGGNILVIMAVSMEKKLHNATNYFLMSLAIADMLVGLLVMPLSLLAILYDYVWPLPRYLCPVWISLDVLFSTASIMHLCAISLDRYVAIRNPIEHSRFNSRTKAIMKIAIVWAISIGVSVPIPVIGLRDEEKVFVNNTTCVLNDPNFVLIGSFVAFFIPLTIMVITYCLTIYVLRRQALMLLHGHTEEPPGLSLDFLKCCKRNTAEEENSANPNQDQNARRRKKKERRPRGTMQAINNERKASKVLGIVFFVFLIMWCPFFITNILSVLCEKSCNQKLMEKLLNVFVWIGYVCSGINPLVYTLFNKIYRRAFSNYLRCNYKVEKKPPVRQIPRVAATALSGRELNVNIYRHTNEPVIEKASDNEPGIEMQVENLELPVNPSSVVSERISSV

[3] = target: T3, 5-HT1A receptor (Homo sapiens, UniProt P08908); test: cell-based; conditions: agonist, Ca2+ flux; for Emax: CHO, CHO cells with Gα15, max dose, read-out: 5-HT1A % Act @ Max Dose; for EC50: CHO cells with Gα15
T3 construct: expressed in transfected cells; host or cells: CHO cells, stably transfected
T3 sequence (P08908 1-422): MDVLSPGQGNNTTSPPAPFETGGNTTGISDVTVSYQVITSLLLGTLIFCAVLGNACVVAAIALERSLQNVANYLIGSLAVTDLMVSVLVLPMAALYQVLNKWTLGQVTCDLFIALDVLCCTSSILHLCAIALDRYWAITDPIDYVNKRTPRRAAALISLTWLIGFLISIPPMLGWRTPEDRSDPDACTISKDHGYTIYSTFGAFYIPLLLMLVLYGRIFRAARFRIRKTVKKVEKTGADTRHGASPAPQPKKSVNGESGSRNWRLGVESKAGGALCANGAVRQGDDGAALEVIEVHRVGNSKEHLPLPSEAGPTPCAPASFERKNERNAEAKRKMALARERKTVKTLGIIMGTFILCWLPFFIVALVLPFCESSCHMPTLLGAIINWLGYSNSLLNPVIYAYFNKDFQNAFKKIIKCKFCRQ
Procedure, shortened: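 Using HEK293 lines for the 5-HT2 subtypes and Gα15-coupled CHO cells for 5-HT1A, compounds were tested as agonists. Fluorescent Ca2+ signal followed dye loading (Fluo-4 Direct, 2.5 mM final probenecid, 50 min, 37 °C).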

[4] = target: T4, 5-HT2A receptor (Homo sapiens, UniProt P28223); test: cell-based; assay type: cell-based; conditions: beta-arrestin recruitment; for Emax: agonist, max dose, read-out: 5-HT2A Arrestin % Act @ Max Dose
Procedure, shortened: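 PathHunter β-arrestin recruitment (enzyme fragment complementation): 5-HT2A fused to ProLink donor in cells co-expressing β-arrestin–β-galactosidase acceptor, seeded and held at 37° C before testing. Chemiluminescent read-out; agonist % activity = (sample RLU − vehicle)/(max control ligand − vehicle) × 100.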

[5] = tested on: C57BL/6 mice; test: Mouse head twitch response (HTR) assay (observer-counted); assay type: in vivo; conditions: SC; for HTR at most efficacious dose (bound): 20 min
Description: Agonists of the 5-HT2A receptor are well known to induce this effect in rodents and the potency of this HTR is correlated with hallucinogenic potency in humans.
Animals. Adult male C57BL/6 mice, aged 6-8 weeks (body weight 20-25 g) were used in this experiment. Animals were housed under controlled temperatures and 12-hour light/dark cycles (lights on between 07:00-19:00 h), with ad libitum food and water. This study was carried out in strict accordance with the requirements of the Committee for the Purpose of Control and Supervision of Experiments on Animals (CPCSEA), India. All efforts were made to minimize suffering.
Procedure. Mice were administered one dose of the drug and immediately placed into a small open field for behavioral observation. Animals were observed continuously for 20 mins and the number of head twitches (HTs) were counted by an observer blind to the treatment condition.
Statistical Analysis. The data points shown are the mean±standard error of the mean (SEM). Analysis was performed using GraphPad Prism 6. Curves were fit using a non-linear gaussian distribution to calculate ED50 and Emax values.
Additional disclosed compounds were tested in the mouse head twitch response (HTR) assay according to the procedure described in Example 57 (administered SC). […] Lastly, compounds with much larger benzyl and phenethyl substituents on the amine nitrogen (e.g., 10 and 11) were low efficacy in this assay, consistent with their bias toward arrestin signaling (see Example 55).

[6] = in vitro; assay type: in vitro ADME, human; conditions: for microsomal CLint: read-out: Intrinsic clearance (Clint); for half-life: read-out: half-life (t1/2)
[7] = in vitro; assay type: in vitro ADME, mouse; conditions: for microsomal CLint: read-out: Intrinsic clearance (Clint); for half-life: read-out: half-life (t1/2)
Excerpt: MLM Stability Pooled MLM from male CD-1 mice (BIOIVT M00501) were used.

[8] = in vitro; assay type: in vitro ADME, rat; conditions: for microsomal CLint: read-out: Intrinsic clearance (Clint); for half-life: read-out: half-life (t1/2)
Excerpt: RLM Stability Pooled RLM from male Sprague-Dawley rats (Xenotech R1000) were used.

[9] = target: T4, 5-HT2A receptor; test: cell-based; assay type: cell-based; parameters: expressed in transfected cells; host or cells: HEK293, stably transfected; conditions: Ca2+ flux; for Emax: HEK293, agonist, HEK293, max dose, read-out: 5-HT2A % Act @ Max Dose; for EC50: agonist, HEK293
Procedure, shortened: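 FLIPR Ca2+ flux agonist assay using stably transfected HEK293 (5-HT2A, 5-HT2B) or CHO cells co-expressing Gα15 (5-HT1A). Cells loaded with Fluo-4 Direct plus 2.5 mM probenecid (final) for 50 min at 37 °C, then compound added and fluorescence read.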

[10] = target: T1, 5-HT2B receptor; test: 5-HT2B receptor radioligand binding ([3H]LSD); conditions: read-out: 5-HT2B Receptor Ki
[11] = target: T4, 5-HT2A receptor; test: biochemical; assay type: binding; parameters: expressed in transfected cells; host or cells: HEK293, stably transfected; conditions: [3H]ketanserin 1 nM; HEK293 stable cell line; 1 h, 25 °C
Procedure, shortened: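 Affinity was measured in radioligand binding experiments using [^3H]ketanserin as the labelled ligand, following methods adapted from published procedures.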

[12] = agonist, Ca2+ flux, Eurofins DiscoverX protocol, max dose
[13] = human, microsomes, HLM 0.50 mg/mL, NADPH 1 mM, 1 μM compound, pH 7.4, 37° C., 60 min
[14] = mouse, microsomes, MLM (male CD-1) 0.50 mg/mL, NADPH 1 mM, 1 μM compound, pH 7.4, 37° C., 60 min
[15] = rat, microsomes, RLM (male Sprague-Dawley) 0.50 mg/mL, NADPH 1 mM, 1 μM compound, pH 7.4, 37° C., 60 min

T1 sequence (P41595 whole entry): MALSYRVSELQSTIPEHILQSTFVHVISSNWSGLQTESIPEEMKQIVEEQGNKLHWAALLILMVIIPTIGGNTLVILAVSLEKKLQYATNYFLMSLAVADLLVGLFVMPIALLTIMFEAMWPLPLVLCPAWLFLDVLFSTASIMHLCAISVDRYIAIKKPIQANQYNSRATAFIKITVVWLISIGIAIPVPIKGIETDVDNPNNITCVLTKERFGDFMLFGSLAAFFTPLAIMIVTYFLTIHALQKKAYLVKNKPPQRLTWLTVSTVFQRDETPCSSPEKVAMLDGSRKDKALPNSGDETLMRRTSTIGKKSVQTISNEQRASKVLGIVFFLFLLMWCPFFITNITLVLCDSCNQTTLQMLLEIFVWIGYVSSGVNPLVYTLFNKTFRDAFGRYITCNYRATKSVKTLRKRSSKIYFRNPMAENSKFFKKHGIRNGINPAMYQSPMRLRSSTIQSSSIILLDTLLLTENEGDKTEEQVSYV
T4 sequence (P28223 whole entry, the tested form may be a part): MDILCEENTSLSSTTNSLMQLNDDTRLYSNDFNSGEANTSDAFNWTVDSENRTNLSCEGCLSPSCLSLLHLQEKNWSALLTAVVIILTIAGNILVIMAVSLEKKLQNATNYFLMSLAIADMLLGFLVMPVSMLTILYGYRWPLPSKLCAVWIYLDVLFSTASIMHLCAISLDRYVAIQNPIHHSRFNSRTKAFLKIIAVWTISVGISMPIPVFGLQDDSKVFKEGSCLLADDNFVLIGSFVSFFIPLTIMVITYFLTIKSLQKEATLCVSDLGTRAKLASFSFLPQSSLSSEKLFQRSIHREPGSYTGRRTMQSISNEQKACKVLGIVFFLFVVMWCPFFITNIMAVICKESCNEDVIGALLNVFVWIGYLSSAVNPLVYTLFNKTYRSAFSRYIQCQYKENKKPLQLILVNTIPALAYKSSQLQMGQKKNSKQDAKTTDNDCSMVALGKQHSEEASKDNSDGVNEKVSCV

Row | Structure (SMILES) | Emax [1] [%] | Emax [3] [%] | Emax [4] [%] | 5-HT2A arrestin agonist class [4] | HTR at most efficacious dose (bound) [5] [HTR] | Emax [9] [%] | Emax [2, 12] [%] | stability in HLM [6] | stability in MLM [7] | stability in RLM [8] | Ki [10] [nM] | EC50 [1] [µM] | EC50 [3] [µM] | microsomal CLint [6, 13] [µL/min/mg] | half-life [6, 13] [min] | microsomal CLint [7, 14] [µL/min/mg] | half-life [7, 14] [min] | microsomal CLint [8, 15] [µL/min/mg] | half-life [8, 15] [min] | Ki [11] [nM] | further results
1 | CCC[C@@H](C)NC(=O)[C@@H]1C=C2c3cccc4[nH]cc(c34)C[C@H]2N(C)C1 [Int17] | 25.5 | 113 | 38.8 | partial agonists | < 15 | 91.5 | – | – | – | – | – | – | – | – | – | – | – | – | – | – | Emax [2]: 102%; # HTR/20 min at Most Efficacious Dose ([5]; most efficacious dose 0.32 mg/kg): 6.0 HTR/20 min; half-life (t1/2) ([6]; human, microsomes, pH 7.4): 15.865 min; half-life (t1/2) ([7]; mouse, microsomes, pH 7.4): 8.252 min; half-life (t1/2) ([8]; rat, microsomes, pH 7.4): 27.894 min
2 | CCC[C@@H](C)NC(=O)[C@@H]1C=C2c3cccc4[nH]cc(c34)C[C@H]2N(CCC)C1 [Compound 7, (6aR,9R)—N—((R)-pentan-2-yl)-7-propyl-4,6,6a,7,8,9-hexahydroindolo[4,3-fg]quinoline-9-carboxamide] | 94.8 | 107 | 110 | full agonists | > 15 | 94.5 | 115 | much lower stability (higher clearance) | much lower stability (higher clearance) | much lower stability (higher clearance) | – | – | – | – | – | – | – | – | – | – | selectivity for 5-HT2A over 5-HT2B ([1]; functional, compared to closest N-methyl counterparts Int8, Int11, Int17): more selective for 5-HT2A over 5-HT2B; half-life (t1/2) ([6]; HLM 0.50 mg/mL, NADPH 1 mM, 1 μM compound, pH 7.4, 37° C., 60 min): 1.65 min; half-life (t1/2) ([7]; MLM (male CD-1) 0.50 mg/mL, NADPH 1 mM, 1 μM compound, pH 7.4, 37° C., 60 min): 0.541 min; half-life (t1/2) ([8]; RLM (male Sprague-Dawley) 0.50 mg/mL, NADPH 1 mM, 1 μM compound, pH 7.4, 37° C., 60 min): 1.612 min
3 | CC[C@@H](C)NC(=O)[C@@H]1C=C2c3cccc4[nH]cc(c34)C[C@H]2N(CC)C1 [Compound 5, (6aR,9R)—N—((R)-sec-butyl)-7-ethyl-4,6,6a,7,8,9-hexahydroindolo[4,3-fg]quinoline-9-carboxamide] | 84.8 | 108 | 106 | full agonists | > 15 | 103 | 114 | much lower stability (higher clearance) | much lower stability (higher clearance) | much lower stability (higher clearance) | – | – | – | – | – | – | – | – | – | – | –
4 | CCN(CC)C(=O)[C@@H]1C=C2c3cccc4[nH]cc(c34)C[C@H]2N(CC2CCCCC2)C1 [Compound 89, (6aR,9R)-7-(cyclohexylmethyl)-N,N-diethyl-4,6,6a,7,8,9-hexahydroindolo[4,3-fg]quinoline-9-carboxamide] | 11.5 | 84.4 | – | – | – | 51.8 | – | – | – | – | 9.67 | > 10 | > 100 | 104 | 13.3 | 572 | 2.4 | 244 | 5.7 | 1.67 | EC50 [9]: 839 nM
5 | CCN(CC)C(=O)[C@@H]1C=C2c3cccc4[nH]cc(c34)C[C@H]2N(CC2CCCC2)C1 [Compound 90, (6aR,9R)-7-(cyclopentylmethyl)-N,N-diethyl-4,6,6a,7,8,9-hexahydroindolo[4,3-fg]quinoline-9-carboxamide] | 12 | 76.8 | – | – | – | 55.8 | – | – | – | – | 2.08 | > 10 | 42.6 | 140 | 9.9 | 649 | 2.1 | 370 | 3.7 | 2.35 | EC50 [9]: 642 nM
